PMC5610748, “Evaluation of Novel α-(Acyloxy)-α-(Quinolin-4-yl) Acetamides as Antiplasmodial Agents” (Iranian Journal of Pharmaceutical Research : IJPR, 2017)
Like-named read-outs stand apart in the source and are kept apart here.

Experiments:
[1] = system: P. falciparum 3D7 chloroquine-sensitive strain; assay: In-vitro antiplasmodial test (Giemsa-stained smears); type: cell-based, Plasmodium falciparum; details: read-out: P. falciparum IC50
Protocol: The P. falciparum 3D7 chloroquine-sensitive strain used throughout the study. In-vitro culture of P. falciparum was carried out according to the method described by previously ([12]-[14]). Briefly, parasites were cultured on human erythrocytes (blood group O^+), provided by the Blood Transfusion Organization (Zanjan, Iran), in RPMI 1640 medium completed with 5% of human AB^+ serum, 0.3 g/100 mL Albumax I, 25 mM HEPES, 19 mM sodium carbonate and 30 µg/mL gentamicin sulfate at pH 7.2. Type O^+ erythrocytes were washed three times with RPMI 1640 and stored at 4 °C.
Parasites were aerated in 25 mL flasks under 3% oxygen, 6% carbon dioxide and 91% nitrogen atmosphere. The medium was changed each day.
Pure compounds were dissolved in DMSO at concentration of 10 mg/mL and diluted with complete malaria culture medium to reach 1 mg/mL before use. Parasites were synchronized to the ring stage by sorbitol method described previously ([15]). From 2-fold dilution series (50-0.39 µg/mL) of compounds prepared in assay medium, 20 µL added to each well of 96-well microtiter plates in triplicate. One hundred eighty µL of synchronous P. falciparum culture (1% parasitemia, 2% hematocrit) added to each well reaching a final volume of 200 µL per well. […] Plates were incubated at 37 °C for 24 h. […] After 24 h incubation, Giemsa stained thin smears were made and parasitemia was confirmed by the numeration of 1000 erythrocytes per slide. Data acquired by counting the erythrocytes in Giemsa stain were imported in Microsoft Excel spreadsheet and IC50 values were calculated from dose-response curves.

[2] = system: human hepatocellular carcinoma cell line (HepG2); assay: In-vitro cytotoxicity assay (MTT); type: cell-based; details: HepG2 cells, 24 h incubation
Protocol: In drug discovery approaches against malaria, one of the important strategies is the safety of active compounds against human. So, the toxicity of active compounds against P. falciparum was assessed on human hepatocellular carcinoma cell line (HepG2) by using MTT (3-[4,5-dimethylthiazol-2-yl] -2,5 diphenyl tetrazolium bromide) assay ([16]-[17]). The cells were cultured in RPMI 1640 medium enriched with 10% FBS (Fetal Bovine Serum) and incubated at 37 °C with 5% CO2 and 96% humidity. After several subcultures, cells were distributed in 96-well plates at 4,000 cells in 100 µL of culture medium and incubated for 24 h at the same condition to allow attachment of cells to the bottom of wells. Then culture medium removed and 100 µL of two-fold serially diluted concentrations of drug (400-1.56 µg/mL) added to each well in triplicate. Microtiter plates further incubated for 24 h in the same condition. Culture medium without drug was used as negative control. After the incubation time, the drug containing medium discharged and for evaluation of cell survival, 25 µL of MTT solution (4 mg/mL in PBS) added to each well and plates incubated for 3 h (in same condition). Then 100 µL of DMSO added to each well and plates were gently shaken to dissolve the formed formazan crystals. The absorbance of each well measured at 540 nm using an ELISA plate reader (Infinite M200, Tecan). The GI% (Growth Inhibition percent) was calculated using the formula Growth Inhibition% = 100 – […], where ODtest is the mean absorbance of treated cells and ODcontrol is the mean absorbance of a negative control. The cell survival of control assumed 100% and IC50 values generated from dose-response curves for each cell line.

[3] = 3D7 chloroquine-sensitive strain, ring-stage synchronized, 24 h incubation, parasitemia by Giemsa smears
[4] = Plasmodium falciparum, 3D7 chloroquine-sensitive strain, ring-stage synchronized, 24 h incubation, parasitemia by Giemsa smears

SMILES | IC50 [1, 3] | also measured
CCN(CC)CCCC(C)Nc1ccnc2cc(Cl)ccc12 (stereo not drawn) [CQ, Chloroquine, reference compound] |  | IC50 ([1]; Plasmodium falciparum, 3D7, 24 h): 0.7 µM
CC(C)(C)NC(=O)C(OC(=O)c1cccc2ccccc12)c1ccnc2ccccc12 (stereo not drawn) [Compound 18] | 6.95 µM | 
O=C(OC(C(=O)NC1CCCCC1)c1ccnc2ccccc12)c1ccc(Cl)cc1 (stereo not drawn) [Compound 4] | 5.02 µM | 
CC(C)(C)NC(=O)C(OC(=O)c1ccc(Br)cc1)c1ccnc2ccccc12 (stereo not drawn) [Compound 16] | 5.1 µM | 
Cc1cccc(C)c1NC(=O)C(OC(=O)c1cccc2ccccc12)c1ccnc2ccccc12 (stereo not drawn) [Compound 22] |  | IC50 [1, 4]: 1.32 µM; IC50 ([2]; Homo sapiens): 254 µM
O=C(OC(C(=O)NC1CCCCC1)c1ccnc2ccccc12)c1ccccc1 (stereo not drawn) [Compound 1] |  | IC50 [1, 4]: 1.51 µM; IC50 ([2]; Homo sapiens): 230 µM
Cc1cccc(C)c1NC(=O)C(OC(=O)c1ccc(C(C)(C)C)cc1)c1ccnc2ccccc12 (stereo not drawn) [Compound 20] |  | IC50 [1, 4]: 1.37 µM; IC50 ([2]; Homo sapiens): 199 µM
CC(C)(C)NC(=O)C(OC(=O)c1ccc(Cl)cc1)c1ccnc2ccccc12 (stereo not drawn) [Compound 13] | 5.85 µM | 

Continued by falling IC50 [1, 3], values first:

IC50 [1, 3] | SMILES | also measured
4.35 µM | CC(C)(C)NC(=O)C(OC(=O)c1ccccc1)c1ccnc2ccccc12 (stereo not drawn) [Compound 11] | 
4.31 µM | Cc1cccc(C)c1NC(=O)C(OC(=O)c1ccccc1)c1ccnc2ccccc12 (stereo not drawn) [Compound 19] | 
4.18 µM | Cc1cccc(C)c1NC(=O)C(OC(=O)c1ccc(Cl)cc1)c1ccnc2ccccc12 (stereo not drawn) [Compound 21] | 
3.5 µM | O=C(OC(C(=O)NC1CCCCC1)c1ccnc2ccccc12)c1ccc(I)cc1 (stereo not drawn) [Compound 8] | 
3.08 µM | CC(C)(C)NC(=O)C(OC(=O)c1ccc(C#N)cc1)c1ccnc2ccccc12 (stereo not drawn) [Compound 17] | 
2.64 µM | CC(C)(C)c1ccc(C(=O)OC(C(=O)NC2CCCCC2)c2ccnc3ccccc23)cc1 (stereo not drawn) [Compound 2] | IC50 [2]: 191 µM
